Where a SMILES comes first, the peptide text is derived from it.
How the values were obtained:
[1] = biological target: oncoprotein E7 from Human Papilloma Virus type 16 as GST fusion protein (E7-GST), phosphorylated by CK2 enzyme (Human papillomavirus type 16, UniProt P03129); format: biochemical; details: read-out: Inhibitory concentration 50 (IC50)
H-125 cells = experiment: Cytotoxic effect on cultured human tumour cells (MTS, 72 h); format: cell-based; details: NCI-H125, 72 h, read-out: Inhibitory concentration 50 (IC50)
Procedure: H-125 cells from a human Non Small Cells Lung Carcinoma were soiled in 96 well plates (Costar) to a 2×10^4 cell/ml density in Dulbecco (DMEM) media (Gibco) and supplemented with Foetal Calf Serum (Gibco). 24 hours later the chemical compounds described herein were added to the cultured media in a range between 0.5 and 100 nM, incubating the mixture for 72 h at 37° C. in 5% CO2, at the end 20 μl of a 1.90 mg/ml MTS solution was added. […] The results are evaluated as growth percentage to controls without any compound, and the IC50 values were estimated using each dosage-effect curve.

[2] = test system: CK2 optimized consensus substrate sequence RRREEETEEE; experiment: In vitro CK2 phosphorylation of the optimized consensus substrate peptide […], filter radioactivity; format: biochemical; details: read-out: Inhibitory concentration 50 (IC50)
Procedure: The assay consists in performing an in vitro phosphorylation reaction, using as the substrate the sequence […] (SEQ. ID NO. 1) widely accepted as an optimized consensus phosphorylation domain for the CK2 substrates.
Before the enzymatic reaction the substrate peptide was preincubated one hour at 37° C., with different concentrations of the chemical compounds. The reaction is carried out in a mixture consisting of 50 μl Tris:HCL 25 mM pH 7.5 buffer, 1 μCi of ^32P-γATP, 100 μM ATP, 40 μl E7-GST containing resin, 0.2 M NaCl, 10 mM MgCl and 1 unit of the CK2 enzyme (Promega), allowing it to proceed for 10 minutes at 37° C. After the reaction 5 μl of the reaction mixture were applied to a Whatmann PE-81 paper filter and washed four times with 10 mM H3PO4, finally the paper associated radioactivity was measured and the cpm value for each sample was directly correlated with the CK2 enzymatic activity.
The IC50 values were estimated using each dosage-effect curve.

[3] = test system: H-125 cells tumour implant; set-up: species or system BalbC nude mice; details: mouse, in vivo
Jurkat cells = details: cited from earlier work

oncoprotein E7 from Human Papilloma Virus type 16 as GST fusion protein (E7-GST), phosphorylated by CK2 enzyme, sequence (P03129 whole entry, looked up, the tested form may be a part): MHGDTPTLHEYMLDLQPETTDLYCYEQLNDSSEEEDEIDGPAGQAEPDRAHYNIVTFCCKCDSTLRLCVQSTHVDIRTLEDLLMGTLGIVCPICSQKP

`NNC(=O)CNc1ccc(F)c(C(F)(F)F)c1` [C31421] gave an IC50 [1] of 30 ± 8 nM, an IC50 (H-125 cells) of 120 ± 18 nM and an IC50 [2] of 50 ± 8 nM.

Work on `NNC(=O)CNc1cccc(I)c1` [C31422] yielded an IC50 [1] of 24 ± 5 nM, an IC50 (H-125 cells) of 114 ± 5 nM and an IC50 [2] of 74 ± 5 nM.

`CC(C(=O)NCC(O)CO)n1ccnc1[N+](=O)[O-]` (stereo not drawn) [C31423] showed an IC50 [1] of 26 ± 8 nM, an IC50 (H-125 cells) of 106 ± 9 nM and an IC50 [2] of 76 ± 4 nM.

For `CCCC(NC(=O)CNC(=O)CN)C(=O)O` (stereo not drawn) [C31424] (HELM PEPTIDE1{G.G.[CCCC(N[*:1])C(=O)O]}$$$$V2.0), the IC50 [1] was 32 ± 13 nM, the IC50 (H-125 cells) was 162 ± 11 nM and the IC50 [2] was 62 ± 1 nM.

With `O=C(O)CNC(=S)C(=S)NCC(=O)O` [C32425] the IC50 [1] was 35 ± 3 nM, the IC50 (H-125 cells) was 115 ± 12 nM and the antitumoral response [3] was “significant antitumoral response”. For the same compound, the IC50 [2] was 65 ± 13 nM.

With `NCCNCCNCCNCCN` [C33426] the IC50 [1] was 29 ± 8 nM, the IC50 (H-125 cells) was 109 ± 19 nM and the antitumoral response [3] was “significant antitumoral response”. It also gave an IC50 [2] of 79 ± 9 nM.

In the case of `OCCNCCCNc1ccnc2cc(Cl)ccc12` [C34428], the IC50 [1] is reported as 25 ± 7 nM, the IC50 (H-125 cells) is reported as 165 ± 12 nM and the IC50 [2] is reported as 65 ± 10 nM.

For `O=S(=O)(O)Nc1cnc(O)nc1O` [C34429], the IC50 [1] was 21 ± 12 nM, the IC50 (H-125 cells) was 131 ± 4 nM and the IC50 [2] was 61 ± 4 nM.

In the case of `O=C1NC(=O)C(CS(=O)(=O)Nc2cccc(C(F)(F)F)c2)N1` (stereo not drawn) [C34430], the IC50 [1] is reported as 30 ± 4 nM, the IC50 (H-125 cells) is reported as 140 ± 14 nM and the IC50 [2] is reported as 70 ± 4 nM.

`O=C(NNCCO)c1ccncc1` [C34431] gave an IC50 [1] of 32 ± 6 nM, an IC50 (H-125 cells) of 155 ± 23 nM and an IC50 [2] of 55 ± 3 nM.

`O=C(O)c1cc(O)nc(SCc2ccc(Cl)cc2Cl)n1` [C34432] gave an IC50 [1] of 29 ± 7 nM, an IC50 (H-125 cells) of 127 ± 7 nM and an IC50 [2] of 67 ± 7 nM.

For `NCCC(=O)NCc1ccccc1` [C34433], the IC50 [1] was 26 ± 10 nM, the IC50 (H-125 cells) was 116 ± 18 nM and the IC50 [2] was 76 ± 8 nM.

Work on `NNC(=O)CC(O)C(=O)NN` (stereo not drawn) [C34434] yielded an IC50 [1] of 28 ± 5 nM, an IC50 (H-125 cells) of 108 ± 21 nM and an IC50 [2] of 78 ± 1 nM.

In the case of `NC(CC(=O)NC(=O)OCc1ccccc1)C(=O)O` (stereo not drawn) [C34435], the IC50 [1] is reported as 34 ± 3 nM, the IC50 (H-125 cells) is reported as 124 ± 16 nM and the IC50 [2] is reported as 64 ± 6 nM.

In the case of `N#CC(Nc1ccccc1C(N)=O)c1ccccc1` (stereo not drawn) [C34436], the IC50 [1] is reported as 30 ± 2 nM, the IC50 (H-125 cells) is reported as 116 ± 22 nM and the IC50 [2] is reported as 66 ± 2 nM.

With `Cn1c(CCNC(=N)CSS(=O)(=O)O)nc2ccccc21` [C34437] the IC50 [1] was 27 ± 4 nM, the IC50 (H-125 cells) was 131 ± 9 nM and the IC50 [2] was 71 ± 9 nM.

In the case of `CC(O)CNc1nc(N)nc(O)c1[N+](=O)[O-]` (stereo not drawn) [C34438], the IC50 [1] is reported as 31 ± 1 nM, the IC50 (H-125 cells) is reported as 111 ± 17 nM and the IC50 [2] is reported as 81 ± 7 nM.

Compound `CSc1nc(N)nc2c1ncn2C1CC(CO)C(O)C1O` (stereo not drawn) [C34439] has an IC50 [1] of 33 ± 5 nM, an IC50 (H-125 cells) of 123 ± 25 nM and an IC50 [2] of 63 ± 12 nM.

Work on `CCOC(=O)c1cc[nH]c1CC(=O)NN` [C34440] yielded an IC50 [1] of 26 ± 4 nM, an IC50 (H-125 cells) of 136 ± 32 nM and an IC50 [2] of 56 ± 4 nM.

In the case of `Brc1c(Br)c(Br)c2[nH]nnc2c1Br` [TBB, 4,5,6,7-tetrabromotriazole], the “apoptosis and caspase dependent degradation induction” value (Jurkat cells) is given as “potent apoptosis and caspase dependent degradation inducer”.

Reference: patent US8748411B2, “Antineoplastic compounds and pharmaceutical compositions thereof” (Centro de Ingenieria Genetica y Biotechnologia, priority 2005, dated 2014)
